One assay addresses T1, PKMYT1 (Homo sapiens, UniProt Q99640).
T1 construct: PKMYT1 (93 kD, full length, N-terminal GST tag from Signal Chem); GST (N); purchased Signal Chem
T1 sequence (Q99640 1-499): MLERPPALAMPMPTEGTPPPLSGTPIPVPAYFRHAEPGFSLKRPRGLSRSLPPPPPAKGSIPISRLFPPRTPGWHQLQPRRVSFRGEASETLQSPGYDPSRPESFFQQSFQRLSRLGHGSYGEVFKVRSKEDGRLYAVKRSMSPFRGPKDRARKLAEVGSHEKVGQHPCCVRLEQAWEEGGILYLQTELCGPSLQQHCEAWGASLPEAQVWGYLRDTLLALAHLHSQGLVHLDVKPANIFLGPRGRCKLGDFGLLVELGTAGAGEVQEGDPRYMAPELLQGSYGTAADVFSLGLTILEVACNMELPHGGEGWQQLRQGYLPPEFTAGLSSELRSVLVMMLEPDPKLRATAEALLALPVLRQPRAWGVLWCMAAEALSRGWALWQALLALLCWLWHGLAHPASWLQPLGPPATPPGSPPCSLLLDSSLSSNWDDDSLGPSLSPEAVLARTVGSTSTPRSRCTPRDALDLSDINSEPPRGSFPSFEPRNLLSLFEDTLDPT
Description: ADP-Glo PKMYT1 ATP-depletion assay. The note with it: 50 nM PKMYT1, 13.3 nM CDK1, read-out: Biochemical IC50. Summed up: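 Full-length N-terminal GST-tagged PKMYT1 (50 nM) with GST-CDK1 (13.3 nM) as substrate and 88 µM ATP, in Hepes buffer with MgCl2, MnCl2, DTT and BSA; DMSO <1%. Incubated 120 min at RT. ADP formed was quantified by ADP-Glo luminescence and used to derive biochemical IC50.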
For orientation: ADP-Glo first removes unused ATP, then detects ADP through luciferase.

Assay [1] has as its system phosphorylation of CDK1 at Thr14 in HCC1806 cells. Description: Cell lysate AlphaLISA assay measuring inhibition of phosphorylation of CDK1 Thr14. It counts as cell-based. The note with it: read-out: Cellular IC50. The method, boiled down: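 HCC1806 cells seeded overnight, then treated 4 h at 37 °C, 5% CO2 with compounds in DMSO; washed and lysed, lysates frozen overnight at −80 °C. CDK1 Thr14 phosphorylation read by AlphaLISA SureFire Ultra; data normalized to DMSO (0% inhibition) and 3 μM reference compound to give IC50.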
(In general: In Alpha technology, singlet oxygen from a donor bead excites a nearby acceptor bead.)

Broadly, the IC50 is the concentration at which inhibition is half-maximal.

Structures are written as SMILES. Where two headings read alike, the source gives them in different places. Bounds are passed on as bounds.

As for `Cc1c(O)cc(Cl)cc1-c1c(N)c(C(N)=O)nc2cccnc12` (atropisomer, axis not shown) [Compound 290], the IC50 (on PKMYT1; in assay [1] (4 hours)) was 50 to 500 nM in each case.
`COc1cncc(-c2c(N)c(C(N)=O)cc3nccnc23)c1C` [Compound 107, 7-amino-8-(5-methoxy-4-methylpyridin-3-yl)quinoxaline-6-carboxamide]: the IC50 at PKMYT1 is 50 to 500 nM; in assay [1] (Homo sapiens, HCC1806, 4 h), at least 5000 nM.
`Cc1cnc2cc(C(N)=O)c(N)c(-c3cccc(O)c3C)c2n1` (atropisomer, axis not shown) [Compound 169]: the 50% inhibitory concentration (IC50) was in the range of 50 to 500 nM on PKMYT1 and 500 to 1000 nM in assay [1] (4 hours).
The corresponding values for `Cc1ccc(O)c(C)c1-c1c(N)c(C(N)=O)nc2ccccc12` (atropisomer, axis not shown; (M)) [Compound 44, (M)-3-Amino-4-(3-hydroxy-2,6-dimethylphenyl)quinoline-2-carboxamide] are 50 to 500 nM and 1000 to 5000 nM.
Take `Cc1c(-c2c(N)c(C(N)=O)cc3nccnc23)ccnc1O` [Compound 159]: the 50% inhibitory concentration (IC50) at PKMYT1 was at least 5000 nM; in assay [1] (Homo sapiens, HCC1806, 4 h), at least 5000 nM.
Take `NC(=O)c1cc2nccnc2c(-c2cccc(O)c2C(F)(F)F)c1N` [Compound 199]: the IC50 was 50 to 500 nM at PKMYT1 and 1000 to 5000 nM in assay [1] (Homo sapiens, HCC1806, 4 h).
With `Cc1ccc(O)c(C)c1-c1c(N)c(C(N)=O)nc2c(C(F)(F)F)cccc12` (single isomer, unassigned) [Compound 31, (P)-3-amino-4-(3-hydroxy-2,6-dimethylphenyl)-8-(trifluoromethyl) quinoline-2-carboxamide], the concentration for half-maximal inhibition (IC50) (on PKMYT1; in assay [1] (4 hours)) was at least 5000 nM throughout.
With `Cc1ccc2[nH]ncc2c1-c1c(N)c(C(N)=O)cc2nccnc12` (single isomer, unassigned) [Compound 78, (P)-7-Amino-8-(5-methyl-1H-indazol-4-yl)quinoxaline-6-carboxamide], the IC50 on PKMYT1 was in the range of 50 to 500 nM; in assay [1] (4 hours), 1000 to 5000 nM.
Consider `Cc1cc(O)cc(C)c1-c1cc(C(N)=O)nc2ccccc12` [Compound 130], for which the half-maximal inhibitory concentration (IC50) is at least 5000 nM at PKMYT1 and at least 5000 nM in assay [1] (Homo sapiens, HCC1806, 4 h).
On to `Cc1c(O)cccc1-c1c(N)c(C(N)=O)nc2cc(C(F)(F)F)cnc12` (atropisomer, axis not shown) [Compound 166], for which the IC50 is below 50 nM at PKMYT1 and 50 to 500 nM in assay [1] (4 hours).
For the molecule `Cc1c(O)cccc1-c1c(N)c(C(N)=O)cc2ccncc12` [Compound 335], the IC50 lay within 50 to 500 nM on PKMYT1 and 1000 to 5000 nM in assay [1] (Homo sapiens, HCC1806, 4 h).
The corresponding values for `Cc1n[nH]c2cccc(-c3c(N)c(C(N)=O)cc4nccnc34)c12` [Compound 109, 7-Amino-8-(3-methyl-1H-indazol-4-yl)quinoxaline-6-carboxamide] are 50 to 500 nM and at least 5000 nM.
As for `Cn1c(-c2c(N)c(C(N)=O)nc3cccnc23)cccc1=O` [Compound 158], the 50% inhibitory concentration (IC50) at PKMYT1 is 1000 to 5000 nM; in assay [1] (Homo sapiens, HCC1806, 4 h), at least 5000 nM.
For the molecule `Cc1c(O)cccc1-c1c(N)c(C(N)=O)cc2nc(C(F)(F)F)cnc12` (atropisomer, axis not shown; (M)) [Compound 103, (M)-7-Amino-8-(3-hydroxy-2-methylphenyl)-3-(trifluoromethyl)quinoxaline-6-carboxamide], the 50% inhibitory concentration (IC50) on PKMYT1 is 1000 to 5000 nM; in assay [1] (4 hours) it was at least 5000 nM.
As for `COc1cc(-c2c(N)c(C(N)=O)nc3cccnc23)cnc1C` [Compound 238], the IC50 on PKMYT1 was 1000 to 5000 nM; in assay [1] (Homo sapiens, HCC1806, 4 h) it was at least 5000 nM.
For `Cn1ncc2c(-c3c(N)c(C(N)=O)nc4cccnc34)cncc21` [Compound 332], in that order: 1000 to 5000 nM and at least 5000 nM.
The corresponding values for `Cc1c(F)cncc1-c1c(N)c(C(N)=O)nc2cccnc12` [Compound 208] are 50 to 500 nM and 500 to 1000 nM.
For `NC(=O)c1cc2nccnc2c(-c2cccn3cncc23)c1N` [Compound 216], in that order: 1000 to 5000 nM and at least 5000 nM.
Take `Cc1c(O)cc(Cl)cc1-c1c(N)c(C(N)=O)nc2cccnc12` [Compound 248]: the IC50 on PKMYT1 was in the range of 50 to 500 nM; in assay [1] (4 hours), 1000 to 5000 nM.
For `Cc1ccc(O)c(C)c1-c1c(N)c(C(N)=O)cc2nccnc12` (single isomer, unassigned) [Compound 85, (M)-7-amino-8-(3-hydroxy-2,6-dimethylphenyl)quinoxaline-6-carboxamide], in that order: 1000 to 5000 nM and at least 5000 nM.
For `NC(=O)c1nc2c(c(-c3cc(O)cnc3F)c1N)NCCC2` (atropisomer, axis not shown) [Compound 296], in that order: at least 5000 nM and at least 5000 nM.
For `Cc1c(O)cccc1-c1c(N)c(C(N)=O)cc2c1ncc(=O)n2C` (atropisomer, axis not shown) [Compound 283], in that order: 1000 to 5000 nM and at least 5000 nM.
As for `COc1ccc2nc(C(N)=O)c(N)c(-c3cccc(O)c3C)c2n1` (atropisomer, axis not shown) [Compound 174], the half-maximal inhibitory concentration (IC50) on PKMYT1 was below 50 nM; in assay [1] (4 hours), 50 to 500 nM.
As to `Cc1c(O)cccc1-c1c(N)c(C(N)=O)cc2nc(N3CCOCC3)cnc12` [Compound 321], the 50% inhibitory concentration (IC50) at PKMYT1 is below 50 nM; in assay [1] (Homo sapiens, HCC1806, 4 h) it was 500 to 1000 nM.
The corresponding values for `Cc1cnc2c(-c3cccc(O)c3C)c(N)c(C(N)=O)cc2c1` [Compound 196] are 50 to 500 nM and 1000 to 5000 nM.
In the case of `Cc1cnc2cc(C(N)=O)c(N)c(-c3c(C)ccc(O)c3C)c2n1` (atropisomer, axis not shown) [Compound 188], the figures for the IC50 (on PKMYT1; in assay [1] (4 hours)) were below 50 nM and 50 to 500 nM, respectively.
As for `Cc1cnn(C)c1-c1c(N)c(C(N)=O)nc2cccnc12` [Compound 210], the half-maximal inhibitory concentration (IC50) is at least 5000 nM at PKMYT1 and at least 5000 nM in assay [1] (Homo sapiens, HCC1806, 4 h).
Consider `Cc1c(O)cccc1-c1cc(C(N)=O)cc2nccnc12` [Compound 80, 8-(3-Hydroxy-2-methylphenyl)quinoxaline-6-carboxamide], for which the IC50 at PKMYT1 was 1000 to 5000 nM; in assay [1] (Homo sapiens, HCC1806, 4 h), at least 5000 nM.
With `Cc1ccc2[nH]ncc2c1-c1c(N)c(C(N)=O)nc2ccccc12` [Compound 17, 3-Amino-4-(5-methyl-1H-indazol-4-yl)quinoline-2-carboxamide], the 50% inhibitory concentration (IC50) at PKMYT1 was 500 to 1000 nM; in assay [1] (Homo sapiens, HCC1806, 4 h), at least 5000 nM.
As to `Cc1ccc(O)c(C)c1-c1c(N)c(C(N)=O)cc2cccnc12` (single isomer, unassigned) [Compound 66, (P)-7-amino-8-(3-hydroxy-2,6-dimethyl-phenyl)quinoline-6-carboxamide], the IC50 on PKMYT1 was below 50 nM; in assay [1] (4 hours) it was 50 to 500 nM.
The corresponding values for `Cc1c(O)cccc1-c1c(N)c(C(N)=O)cc2ncc(C(F)(F)F)nc12` (single isomer, unassigned) [Compound 125, (M)-7-Amino-8-(3-hydroxy-2-methylphenyl)-2-(trifluoromethyl)-quinoxaline-6-carboxamide] are 1000 to 5000 nM and at least 5000 nM.
For `Cc1ccc(O)c(C)c1-c1c(N)c(C(N)=O)cc2cc(Cl)cnc12` (atropisomer, axis not shown) [Compound 235], in that order: 1000 to 5000 nM and at least 5000 nM.
Turning to `Cc1ccc(O)c(C)c1-c1c(N)c(C(N)=O)nc2cc(Cl)ccc12` [Compound 42, 3-Amino-7-chloro-4-(3-hydroxy-2,6-dimethylphenyl)quinoline-2-carboxamide], the IC50 at PKMYT1 lay within 500 to 1000 nM; in assay [1] (Homo sapiens, HCC1806, 4 h), 1000 to 5000 nM.
As for `Cc1c(O)cccc1-c1c(N)c(C(N)=O)nc2cc(Cl)ccc12` [Compound 37, 3-Amino-7-chloro-4-(3-hydroxy-2-methylphenyl)quinoline-2-carboxamide], the concentration for half-maximal inhibition (IC50) lay within 1000 to 5000 nM on PKMYT1 and 1000 to 5000 nM in assay [1] (Homo sapiens, HCC1806, 4 h).
Take `NC(=O)c1nc2cccnc2c(-c2cnn3ccccc23)c1N` [Compound 323]: the IC50 at PKMYT1 was 1000 to 5000 nM; in assay [1] (Homo sapiens, HCC1806, 4 h), at least 5000 nM.
As to `Cc1ccc(O)c(C)c1-c1c(N)c(C(N)=O)cc2nc(C(F)(F)F)cnc12` (single isomer, unassigned) [Compound 111, (M)-7-Amino-8-(3-hydroxy-2,6-dimethylphenyl)-3-(trifluoromethyl)quinoxaline-6-carboxamide], the figures for the IC50 (on PKMYT1; in assay [1] (4 hours)) were 1000 to 5000 nM and at least 5000 nM, respectively.
Consider `Cc1c(O)cccc1-c1c(N)c(C(N)=O)nc2nccc(O)c12` [Compound 297], for which the IC50 at PKMYT1 is at least 5000 nM; in assay [1] (Homo sapiens, HCC1806, 4 h) it was at least 5000 nM.
With `Cc1c(-c2c3c(cc4nccnc24)C(=O)NC(C)(C)N3)ccc(F)c1O` (atropisomer, axis not shown) [Compound 312], the IC50 on PKMYT1 was at least 5000 nM; in assay [1] (Homo sapiens, HCC1806, 4 h), at least 5000 nM.
For `COc1cncc(-c2c(N)c(C(N)=O)nc3cccnc23)c1C` (atropisomer, axis not shown) [Compound 185], the IC50 (at PKMYT1; in assay [1] (4 hours)) was at least 5000 nM in each case.

Values taken from patent US20260176270A1 (Exelixis, Inc., priority 2022, published 2026).
